Tests used:
[1] = tested on: anti-myostatin antibodies
Experimental: Calves were randomly assigned into treatment groups. Twenty one (21) Holstein-Friesian calves (12 male and 9 female) between 9 - 14 weeks of age were included in the study. […] The control group was only injected with the injection fluids, whereas the second group was treated with the myostatin propeptide fragment. The treatments were administered intramuscularly on day 0, day 35 and day 88 of the treatment. Animals were monitored during 19 weeks from the start of the treatment.
Myostatin propeptide fragment (SEQ ID NO 1) was dissolved in sterile arachis oil, and mixed with ViteSel, Freund's Adjuvant Incomplete, or Freund's Adjuvant Complete for injection. […] The control group was injected with the same injection fluid, but without the added peptide. […]
The coated microplate wells were coated with Imperacer® wash buffer "A" using washer-program "block", block against unspecific interaction with "chimera direct block" solution (240 µl/well, 1 min/RT) and with Imperacer® wash buffer "B". After this treatment, the microplate wells were ready for sample incubation. […]
The wells were subsequently washed with Imperacer® wash buffers "B" and "A". 30 µl/well of ready-to-use Imperacer® PCR-mastermix were added to each well. The wells were sealed using real-time PCR foil, and placed into the Imperacer® reader 50 cycles at 95°C with 12 sec per cycle, at 50°C for 30 sec and at 72°C for 30 sec. […]

[2] = tested on: myostatin pathway biomarkers; settings: change relative to non-manipulated reference animal
Experimental: Example 2 was repeated using bovine samples analysed in Example 1.
Detection Conjugate "CHI-Bovine-IgG" (conjugated antibody: anti-Bovine IgG-heavy and light chain Antibody, Sheep Polyclonal, catalogue number: A10-115; Supplier: Bethyl Laboratories, Inc., USA) was used instead of the mouse conjugate. All other Imperacer conjugates for the additional myostatin pathway biomarkers were prepared using standard methods as described in EP 2189539 ([0106]-[0122]). For the biomarkers p-AKT, p-FOXO, MyOD1, MyoG, FBO32, ALK type 1, Pax3, Myf-5, MuRF1, CDKN1 and CDK2, tissue homogenate instead of serum was used. Table 7: Biomarker analysis
The additional myostatin pathway biomarkers shown in Table 7 were quantified using immune-PCR.

[3] = Observation of general health of calves during the 19 weeks treatment period; assay type: in vivo, Holstein-Friesian calves; settings: three intramuscular treatments, 19 weeks observation
Experimental: Calves were randomly assigned into treatment groups.
All calves were treated with the myostatin propeptide fragment three times with during the observation period. Physical data and samples were collected during the life-time of the calves, such as general health, local reactions, and body weight. Serum samples were collected. Some clinical signs were observed, but they remained within a range that was considered normal for a 19 weeks fattening period. […] The animals were healthy at the time of slaughter and all slaughter samples were collected.

CKMSPINMLYFNGKEQIIYG [myostatin propeptide fragment]
Amount of antibodies measured in sample ([1]; anti-myostatin IgG in calf blood serum, intramuscular treatment on day 0, day 35 and day 88): 382 ng/mL
levels of measured anti-myostatin IgG antibodies and treatment ([1]; blind and open tests, compared to the negative control animals): clear association
(P)-SMAD2/ SMAD 3 ([2]; calf sample): -
Act IIB ([2]; calf serum): +
IgG anti-myostatin antibodies ([2]; calf serum): +
Leptin ([2]; calf serum): +
Myostatin Propeptide ([2]; calf serum): -
(p)-FOxO ([2]; calf tissue homogenate): +
ALK type 1 ([2]; calf tissue homogenate): -
CDK2 ([2]; calf tissue homogenate): +
CDKN1 A ([2]; calf tissue homogenate): +
FBXO32 ([2]; calf tissue homogenate): -
MuRF1 ([2]; calf tissue homogenate): -
Myf-5 ([2]; calf tissue homogenate): +
MyoD1 ([2]; calf tissue homogenate): +
MyoG ([2]; calf tissue homogenate): +
Pax 3 ([2]; calf tissue homogenate): +
p-AKT ([2]; calf tissue homogenate): +
general health of the calves [3]: did not impact the general health of the calves
